The values below are quoted from earlier work in patent publication US20220117956A1, “LSD FOR THE TREATMENT OF ALZHEIMER'S DISEASE” (Eleusis Therapeutics US, Inc., priority 2015, published 2022).

The conditions of series [1]: formulated for immediate release; depending on dosage, tolerance, body weight and age.
For series [2] the following is noted: immediate release LSD dosed at 1 μg/kg.

`CCN(CC)C(=O)[C@@H]1C=C2c3cccc4[nH]cc(c34)C[C@H]2N(C)C1` [LSD, lysergic acid diethylamide]: the “duration of LSD's effects” value in series [1] was 6 to 12 h. Besides, in series [2], the apparent plasma half-life is 5.1 h and the “time of peak plasma concentration post-dose” value is 3 h. Besides, in series [2] (at 3 hours post-dose), the peak plasma concentration is 5 ng/mL.
